These compounds were tested against human JAK2 (Homo sapiens (Human), UniProt O60674) (assay: JAK2 TR-FRET kinase assay). Details: JAK2 0.025 nM.
Type: biochemical

human JAK2, sequence (O60674 whole entry): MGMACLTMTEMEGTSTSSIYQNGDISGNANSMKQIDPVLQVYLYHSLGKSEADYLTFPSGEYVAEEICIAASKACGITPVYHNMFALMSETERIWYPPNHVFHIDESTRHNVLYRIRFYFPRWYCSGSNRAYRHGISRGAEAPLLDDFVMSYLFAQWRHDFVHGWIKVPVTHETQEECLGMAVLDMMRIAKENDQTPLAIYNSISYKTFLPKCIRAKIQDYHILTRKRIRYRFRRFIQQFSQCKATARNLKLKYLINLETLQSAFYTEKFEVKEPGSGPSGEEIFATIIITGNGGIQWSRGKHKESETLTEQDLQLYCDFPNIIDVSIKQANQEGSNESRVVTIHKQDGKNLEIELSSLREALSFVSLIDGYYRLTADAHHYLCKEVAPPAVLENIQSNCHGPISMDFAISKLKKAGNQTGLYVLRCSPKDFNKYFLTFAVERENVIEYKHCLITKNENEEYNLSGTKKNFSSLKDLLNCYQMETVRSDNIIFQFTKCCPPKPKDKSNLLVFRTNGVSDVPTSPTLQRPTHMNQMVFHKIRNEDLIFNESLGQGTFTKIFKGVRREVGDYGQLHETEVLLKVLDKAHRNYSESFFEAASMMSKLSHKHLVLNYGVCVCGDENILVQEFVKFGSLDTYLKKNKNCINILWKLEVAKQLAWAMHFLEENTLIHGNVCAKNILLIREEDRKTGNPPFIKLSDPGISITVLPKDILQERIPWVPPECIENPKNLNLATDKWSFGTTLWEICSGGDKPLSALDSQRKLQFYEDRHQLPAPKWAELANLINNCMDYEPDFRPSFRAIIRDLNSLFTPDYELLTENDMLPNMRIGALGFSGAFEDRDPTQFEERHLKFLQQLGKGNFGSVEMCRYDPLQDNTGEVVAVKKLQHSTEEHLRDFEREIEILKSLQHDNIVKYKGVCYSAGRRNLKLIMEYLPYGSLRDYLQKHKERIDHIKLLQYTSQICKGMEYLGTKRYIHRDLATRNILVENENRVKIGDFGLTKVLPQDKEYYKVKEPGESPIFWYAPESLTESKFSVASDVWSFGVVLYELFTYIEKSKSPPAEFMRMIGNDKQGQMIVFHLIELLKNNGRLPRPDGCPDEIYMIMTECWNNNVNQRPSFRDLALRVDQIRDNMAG

Structure (SMILES) | IC50 [nM]
CCC(=O)c1cnc(Nc2cc(C(F)(F)F)c(CN(C)C)cn2)cc1Nc1cccc(-c2ncn(C)n2)c1OC [Compound 9SSSS] | ≥ 500
CCC(=O)c1cnc(Nc2cnc(CN(C)C)cn2)cc1Nc1cccc(-c2ncn(C)n2)c1OC [Compound 9SSS] | ≥ 500
CCC(=O)c1cnc(Nc2nccc(CN(C)C)c2F)cc1Nc1cccc(-c2ncn(C)n2)c1OC [Compound 9TTTT] | ≥ 500
CCC(=O)c1cnc(Nc2cnc(C(N)C(F)(F)F)cn2)cc1Nc1cccc(-c2ncn(C)n2)c1OC (centres unmarked) [Compound 9TTT] | ≥ 500
CCC(=O)c1cnc(Nc2nc(CN(C)C)ccc2F)cc1Nc1cccc(-c2ncn(C)n2)c1OC [Compound 9UUUU] | ≥ 500
CCC(=O)c1cnc(Nc2cnc(C(NC)C(F)(F)F)cn2)cc1Nc1cccc(-c2ncn(C)n2)c1OC (centres unmarked) [Compound 9UUU] | ≥ 500

Next, values leading:

IC50 [nM] | Structure (SMILES)
≥ 500 | CCC(=O)c1cnc(Nc2ccc(CN(C)C3CC3)cn2)cc1Nc1cccc(-c2ncn(C)n2)c1OC [Compound 9R]
≥ 500 | CCC(=O)c1cnc(Nc2ccc(CN3CCOCC3)cn2)cc1Nc1cccc(-c2ncn(C)n2)c1OC [Compound 9SS]
50 to 500 | CCC(=O)c1cnc(Nc2ccc(C(NC)C(F)(F)F)cn2)cc1Nc1cccc(-c2ncn(C)n2)c1OC (centres unmarked) [Compound 9S]
50 to 500 | CCC(=O)c1cnc(Nc2ccc(CN3[C@H](C)COC[C@@H]3C)cn2)cc1Nc1cccc(-c2ncn(C)n2)c1OC [Compound 9TT]
≥ 500 | CCC(=O)c1cnc(Nc2ccc(CN(C)C(C)C)cn2)cc1Nc1cccc(-c2ncn(C)n2)c1OC [Compound 9T]

Each compound was assayed against human JAK1 (Homo sapiens (Human), UniProt P23458) (assay: JAK1 TR-FRET kinase assay). Details: TR-FRET, JAK1 2.5 nM.
human JAK1, sequence (P23458 whole entry): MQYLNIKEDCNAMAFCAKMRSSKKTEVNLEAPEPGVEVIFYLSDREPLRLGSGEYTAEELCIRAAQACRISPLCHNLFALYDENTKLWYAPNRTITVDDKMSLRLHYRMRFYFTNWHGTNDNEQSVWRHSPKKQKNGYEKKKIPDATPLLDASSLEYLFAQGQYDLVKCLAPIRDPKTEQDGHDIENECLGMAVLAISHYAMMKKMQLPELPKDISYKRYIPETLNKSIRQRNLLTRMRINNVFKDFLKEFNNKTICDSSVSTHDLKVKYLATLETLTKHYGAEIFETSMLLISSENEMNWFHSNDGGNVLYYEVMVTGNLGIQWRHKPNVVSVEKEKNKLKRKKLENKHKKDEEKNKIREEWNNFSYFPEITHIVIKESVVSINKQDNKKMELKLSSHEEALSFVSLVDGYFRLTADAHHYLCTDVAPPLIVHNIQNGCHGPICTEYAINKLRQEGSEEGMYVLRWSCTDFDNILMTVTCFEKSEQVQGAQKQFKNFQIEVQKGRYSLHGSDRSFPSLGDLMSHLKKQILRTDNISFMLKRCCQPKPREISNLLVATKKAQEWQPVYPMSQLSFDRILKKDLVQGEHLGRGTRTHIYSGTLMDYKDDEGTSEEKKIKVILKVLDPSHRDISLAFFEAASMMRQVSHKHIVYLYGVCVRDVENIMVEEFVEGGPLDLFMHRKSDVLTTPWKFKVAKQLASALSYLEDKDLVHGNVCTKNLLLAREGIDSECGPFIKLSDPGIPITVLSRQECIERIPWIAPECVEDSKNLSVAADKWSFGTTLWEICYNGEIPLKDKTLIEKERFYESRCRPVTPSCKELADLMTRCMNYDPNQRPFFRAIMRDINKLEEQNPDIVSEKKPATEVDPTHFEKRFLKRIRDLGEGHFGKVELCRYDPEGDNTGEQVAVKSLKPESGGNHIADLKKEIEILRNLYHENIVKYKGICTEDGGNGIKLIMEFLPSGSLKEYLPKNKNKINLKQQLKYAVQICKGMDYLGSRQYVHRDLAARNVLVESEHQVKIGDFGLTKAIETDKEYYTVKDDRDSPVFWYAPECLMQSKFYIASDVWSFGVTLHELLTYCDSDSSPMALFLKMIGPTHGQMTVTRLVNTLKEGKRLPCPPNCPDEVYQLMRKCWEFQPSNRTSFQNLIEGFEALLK
Type: biochemical

Structure (SMILES) | IC50 [nM]
CCC(=O)c1cnc(Nc2cc(C(F)(F)F)c(CN(C)C)cn2)cc1Nc1cccc(-c2ncn(C)n2)c1OC [Compound 9SSSS] | ≥ 500
CCC(=O)c1cnc(Nc2cnc(CN(C)C)cn2)cc1Nc1cccc(-c2ncn(C)n2)c1OC [Compound 9SSS] | ≥ 500
CCC(=O)c1cnc(Nc2nccc(CN(C)C)c2F)cc1Nc1cccc(-c2ncn(C)n2)c1OC [Compound 9TTTT] | ≥ 500
CCC(=O)c1cnc(Nc2cnc(C(N)C(F)(F)F)cn2)cc1Nc1cccc(-c2ncn(C)n2)c1OC (centres unmarked) [Compound 9TTT] | ≥ 500
CCC(=O)c1cnc(Nc2nc(CN(C)C)ccc2F)cc1Nc1cccc(-c2ncn(C)n2)c1OC [Compound 9UUUU] | ≥ 500
CCC(=O)c1cnc(Nc2cnc(C(NC)C(F)(F)F)cn2)cc1Nc1cccc(-c2ncn(C)n2)c1OC (centres unmarked) [Compound 9UUU] | ≥ 500

Further lines, results first:

IC50 [nM] | Structure (SMILES)
≥ 500 | CCC(=O)c1cnc(Nc2ccc(CN(C)C3CC3)cn2)cc1Nc1cccc(-c2ncn(C)n2)c1OC [Compound 9R]
≥ 500 | CCC(=O)c1cnc(Nc2ccc(CN3CCOCC3)cn2)cc1Nc1cccc(-c2ncn(C)n2)c1OC [Compound 9SS]
≥ 500 | CCC(=O)c1cnc(Nc2ccc(C(NC)C(F)(F)F)cn2)cc1Nc1cccc(-c2ncn(C)n2)c1OC (centres unmarked) [Compound 9S]
≥ 500 | CCC(=O)c1cnc(Nc2ccc(CN3[C@H](C)COC[C@@H]3C)cn2)cc1Nc1cccc(-c2ncn(C)n2)c1OC [Compound 9TT]
≥ 500 | CCC(=O)c1cnc(Nc2ccc(CN(C)C(C)C)cn2)cc1Nc1cccc(-c2ncn(C)n2)c1OC [Compound 9T]

Each compound was assayed against human JAK3 (Homo sapiens (Human), UniProt P52333) (assay: JAK3 TR-FRET kinase assay). Details: JAK3 0.0125 nM.
human JAK3, sequence (P52333 whole entry): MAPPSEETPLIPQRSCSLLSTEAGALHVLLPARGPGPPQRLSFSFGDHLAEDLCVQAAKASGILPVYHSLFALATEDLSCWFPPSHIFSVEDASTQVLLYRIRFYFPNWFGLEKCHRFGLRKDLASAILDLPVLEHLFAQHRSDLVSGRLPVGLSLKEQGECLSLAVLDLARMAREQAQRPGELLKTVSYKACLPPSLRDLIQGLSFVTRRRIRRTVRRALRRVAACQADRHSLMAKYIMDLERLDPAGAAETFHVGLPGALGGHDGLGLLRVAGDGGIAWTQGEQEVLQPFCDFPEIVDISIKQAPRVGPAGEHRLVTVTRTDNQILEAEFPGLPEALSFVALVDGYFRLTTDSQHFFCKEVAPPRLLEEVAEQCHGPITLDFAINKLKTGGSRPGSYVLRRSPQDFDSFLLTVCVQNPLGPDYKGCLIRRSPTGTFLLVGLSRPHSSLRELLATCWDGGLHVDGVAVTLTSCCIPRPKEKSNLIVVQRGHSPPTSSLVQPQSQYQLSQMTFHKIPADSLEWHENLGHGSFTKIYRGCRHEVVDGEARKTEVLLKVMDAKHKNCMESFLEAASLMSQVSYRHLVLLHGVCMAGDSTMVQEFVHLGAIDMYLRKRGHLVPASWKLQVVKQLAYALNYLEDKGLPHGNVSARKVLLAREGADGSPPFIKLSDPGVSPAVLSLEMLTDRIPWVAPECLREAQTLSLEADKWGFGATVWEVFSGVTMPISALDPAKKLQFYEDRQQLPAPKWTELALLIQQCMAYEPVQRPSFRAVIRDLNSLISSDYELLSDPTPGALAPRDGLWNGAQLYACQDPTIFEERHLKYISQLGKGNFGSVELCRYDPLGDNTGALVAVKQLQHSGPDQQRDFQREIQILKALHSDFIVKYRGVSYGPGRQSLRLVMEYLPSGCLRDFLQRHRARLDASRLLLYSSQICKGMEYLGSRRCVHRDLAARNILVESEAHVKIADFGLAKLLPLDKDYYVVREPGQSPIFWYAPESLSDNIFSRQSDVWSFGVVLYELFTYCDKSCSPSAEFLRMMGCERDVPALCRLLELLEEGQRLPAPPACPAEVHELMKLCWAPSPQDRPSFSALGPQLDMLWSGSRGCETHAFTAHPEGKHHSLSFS
Type: biochemical

Structure (SMILES) | IC50 [nM]
CCC(=O)c1cnc(Nc2cc(C(F)(F)F)c(CN(C)C)cn2)cc1Nc1cccc(-c2ncn(C)n2)c1OC [Compound 9SSSS] | ≥ 500
CCC(=O)c1cnc(Nc2cnc(CN(C)C)cn2)cc1Nc1cccc(-c2ncn(C)n2)c1OC [Compound 9SSS] | ≥ 500
CCC(=O)c1cnc(Nc2nccc(CN(C)C)c2F)cc1Nc1cccc(-c2ncn(C)n2)c1OC [Compound 9TTTT] | ≥ 500
CCC(=O)c1cnc(Nc2cnc(C(N)C(F)(F)F)cn2)cc1Nc1cccc(-c2ncn(C)n2)c1OC (centres unmarked) [Compound 9TTT] | ≥ 500
CCC(=O)c1cnc(Nc2nc(CN(C)C)ccc2F)cc1Nc1cccc(-c2ncn(C)n2)c1OC [Compound 9UUUU] | ≥ 500
CCC(=O)c1cnc(Nc2cnc(C(NC)C(F)(F)F)cn2)cc1Nc1cccc(-c2ncn(C)n2)c1OC (centres unmarked) [Compound 9UUU] | ≥ 500

Further lines, results first:

IC50 [nM] | Structure (SMILES)
≥ 500 | CCC(=O)c1cnc(Nc2ccc(CN(C)C3CC3)cn2)cc1Nc1cccc(-c2ncn(C)n2)c1OC [Compound 9R]
≥ 500 | CCC(=O)c1cnc(Nc2ccc(CN3CCOCC3)cn2)cc1Nc1cccc(-c2ncn(C)n2)c1OC [Compound 9SS]
≥ 500 | CCC(=O)c1cnc(Nc2ccc(C(NC)C(F)(F)F)cn2)cc1Nc1cccc(-c2ncn(C)n2)c1OC (centres unmarked) [Compound 9S]
50 to 500 | CCC(=O)c1cnc(Nc2ccc(CN3[C@H](C)COC[C@@H]3C)cn2)cc1Nc1cccc(-c2ncn(C)n2)c1OC [Compound 9TT]
≥ 500 | CCC(=O)c1cnc(Nc2ccc(CN(C)C(C)C)cn2)cc1Nc1cccc(-c2ncn(C)n2)c1OC [Compound 9T]

Each compound was assayed against TYK2 JH2 domain (Homo sapiens (Human), UniProt P29597) (assay: TYK2 JH2 NanoBRET assay). Details: Table 20, read-out: TYK2 IC50.
TYK2 JH2 domain, sequence (P29597 589-875): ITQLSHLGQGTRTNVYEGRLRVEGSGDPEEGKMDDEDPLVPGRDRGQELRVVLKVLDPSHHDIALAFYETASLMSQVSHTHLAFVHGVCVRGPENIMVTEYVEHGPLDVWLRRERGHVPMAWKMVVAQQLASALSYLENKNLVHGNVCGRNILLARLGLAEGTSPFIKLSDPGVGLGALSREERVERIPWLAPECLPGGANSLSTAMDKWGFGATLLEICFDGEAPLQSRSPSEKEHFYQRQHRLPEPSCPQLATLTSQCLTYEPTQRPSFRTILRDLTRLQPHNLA
Type: binding
Outline: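 Tracer displacement measured by BRET ratio (acceptor over donor) in live HEK293T cells transfected with a NanoLuc-tagged TYK2 JH2 construct; cells co-exposed to test compound and 0.5 µM final K10 tracer for 2 h before substrate/extracellular inhibitor addition.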

Structure (SMILES) | IC50 [nM]
CCC(=O)c1cnc(Nc2cc(C(F)(F)F)c(CN(C)C)cn2)cc1Nc1cccc(-c2ncn(C)n2)c1OC [Compound 9SSSS] | 5 to 50
CCC(=O)c1cnc(Nc2cnc(CN(C)C)cn2)cc1Nc1cccc(-c2ncn(C)n2)c1OC [Compound 9SSS] | < 5
CCC(=O)c1cnc(Nc2nccc(CN(C)C)c2F)cc1Nc1cccc(-c2ncn(C)n2)c1OC [Compound 9TTTT] | 5 to 50
CCC(=O)c1cnc(Nc2cnc(C(N)C(F)(F)F)cn2)cc1Nc1cccc(-c2ncn(C)n2)c1OC (centres unmarked) [Compound 9TTT] | 5 to 50
CCC(=O)c1cnc(Nc2nc(CN(C)C)ccc2F)cc1Nc1cccc(-c2ncn(C)n2)c1OC [Compound 9UUUU] | 50 to 500
CCC(=O)c1cnc(Nc2cnc(C(NC)C(F)(F)F)cn2)cc1Nc1cccc(-c2ncn(C)n2)c1OC (centres unmarked) [Compound 9UUU] | 5 to 50

The next lines start with the values.

IC50 [nM] | Structure (SMILES)
5 to 50 | CCC(=O)c1cnc(Nc2ccc(CN(C)C3CC3)cn2)cc1Nc1cccc(-c2ncn(C)n2)c1OC [Compound 9R]
< 5 | CCC(=O)c1cnc(Nc2ccc(CN3CCOCC3)cn2)cc1Nc1cccc(-c2ncn(C)n2)c1OC [Compound 9SS]
< 5 | CCC(=O)c1cnc(Nc2ccc(C(NC)C(F)(F)F)cn2)cc1Nc1cccc(-c2ncn(C)n2)c1OC (centres unmarked) [Compound 9S]
< 5 | CCC(=O)c1cnc(Nc2ccc(CN3[C@H](C)COC[C@@H]3C)cn2)cc1Nc1cccc(-c2ncn(C)n2)c1OC [Compound 9TT]
< 5 | CCC(=O)c1cnc(Nc2ccc(CN(C)C(C)C)cn2)cc1Nc1cccc(-c2ncn(C)n2)c1OC [Compound 9T]
